Data published in the CheMixHub viscosity set.

Assay: xn = mol fraction of the nth substance listed

CCCCCCCCCC(=O)OC + CCCCO
viscosity [mPa·s], 100 kPa
Conditions | 293.15 K | 298.15 K | 303.15 K | 308.15 K | 313.15 K | 318.15 K | 323.15 K
x1 = 0.09981 | 2.423 | 2.148 | 1.914 | 1.709 | 1.538 | 1.386 | 1.254
x1 = 0.1 | – | 2.153 | 1.921 | 1.715 | 1.537 | 1.384 | –
x1 = 0.2 | – | 1.948 | 1.745 | 1.569 | 1.419 | – | –
x1 = 0.2003 | 2.159 | 1.939 | 1.74 | 1.566 | 1.418 | 1.287 | 1.173
x1 = 0.3 | – | 1.841 | 1.656 | 1.504 | 1.359 | – | –
x1 = 0.3001 | 2.041 | 1.827 | 1.646 | 1.489 | 1.353 | 1.235 | 1.13
x1 = 0.3993 | 1.973 | 1.773 | 1.602 | 1.454 | 1.326 | 1.214 | 1.116
x1 = 0.4 | – | 1.794 | 1.616 | 1.464 | 1.333 | – | –
x1 = 0.5 | – | 1.765 | 1.597 | 1.452 | 1.332 | – | –
x1 = 0.501 | 1.95 | 1.755 | 1.59 | 1.446 | 1.322 | 1.213 | 1.117
x1 = 0.6001 | – | 1.77 | 1.6 | 1.458 | 1.331 | – | –
x1 = 0.6002 | 1.944 | 1.751 | 1.589 | 1.448 | 1.325 | 1.218 | 1.124
x1 = 0.6999 | – | 1.779 | 1.613 | 1.471 | 1.347 | – | –
x1 = 0.7028 | 1.958 | 1.767 | 1.603 | 1.463 | 1.341 | 1.234 | 1.14
x1 = 0.7953 | 1.986 | 1.793 | 1.629 | 1.487 | 1.364 | 1.257 | 1.163
x1 = 0.7987 | – | 1.808 | 1.646 | 1.497 | 1.372 | – | –
x1 = 0.8967 | – | 1.846 | 1.678 | 1.532 | 1.407 | – | –
x1 = 0.8999 | 2.03 | 1.835 | 1.668 | 1.524 | 1.399 | 1.29 | 1.194

O=[N+]([O-])[O-].[Na+] + O
viscosity [mPa·s]
Conditions | 293.15 K | 298.15 K | 303.15 K | 308.15 K | 313.15 K | 318.15 K
101 kPa, x1 = 0.0371 | – | – | – | – | 0.78 | –
101 kPa, x1 = 0.0564 | – | 1.19 | – | – | 0.89 | –
101 kPa, x1 = 0.0768 | – | 1.3 | – | – | 1.02 | –
101 kPa, x1 = 0.0978 | – | 1.63 | – | – | 1.2 | –
101 kPa, x1 = 0.12 | – | 1.92 | – | – | 1.41 | –
101.1 kPa, x1 = 0.0001893 | 1.003 | 0.892 | 0.799 | 0.721 | 0.654 | 0.598
101.1 kPa, x1 = 0.0007456 | 1.004 | 0.893 | 0.8 | 0.722 | 0.655 | 0.6
101.1 kPa, x1 = 0.0018 | 1.007 | 0.895 | 0.803 | 0.725 | 0.658 | 0.602
101.1 kPa, x1 = 0.007199 | 1.02 | 0.909 | 0.817 | 0.738 | 0.662 | 0.608
101.1 kPa, x1 = 0.01603 | 1.032 | 0.923 | 0.83 | 0.75 | 0.676 | 0.618
101.1 kPa, x1 = 0.0211 | 1.052 | 0.934 | 0.836 | 0.754 | 0.682 | 0.623
101.3 kPa, x1 = 0.0009 | 1.005 | 0.8932 | 0.8005 | 0.7222 | – | 0.5989
101.3 kPa, x1 = 0.0018 | 1.007 | 0.8955 | 0.8028 | 0.7247 | – | 0.6018
101.3 kPa, x1 = 0.00893 | 1.025 | 0.915 | 0.8225 | 0.7446 | – | 0.6207
101.3 kPa, x1 = 0.0177 | 1.058 | 0.9465 | 0.853 | 0.7732 | – | 0.6476
101.3 kPa, x1 = 0.03478 | 1.15 | 1.032 | 0.9323 | 0.8482 | – | 0.7131
101.3 kPa, x1 = 0.05127 | 1.275 | 1.144 | 1.034 | 0.9397 | – | 0.7913
101.3 kPa, x1 = 0.06722 | 1.418 | 1.271 | 1.148 | 1.043 | – | 0.8782
101.3 kPa, x1 = 0.09755 | 1.796 | 1.604 | 1.444 | 1.309 | – | 1.097
101.3 kPa, x1 = 0.126 | 2.231 | 1.983 | 1.778 | 1.606 | – | 1.338
101.33 kPa, x1 = 0.000905 | – | – | – | 0.7324 | 0.6609 | –
101.33 kPa, x1 = 0.002718 | – | – | – | 0.7422 | 0.6695 | –
101.33 kPa, x1 = 0.00453 | – | – | – | 0.7525 | 0.6763 | –
101.33 kPa, x1 = 0.006344 | – | – | – | 0.7606 | 0.6855 | –
101.33 kPa, x1 = 0.008159 | – | – | – | 0.7705 | 0.6992 | –
101.33 kPa, x2 = 0.84 | 3.04 | – | – | – | – | –
101.33 kPa, x2 = 0.86 | 2.507 | – | – | – | – | –
101.33 kPa, x2 = 0.88 | 2.15 | – | – | – | – | –
101.33 kPa, x2 = 0.89 | 2.088 | – | – | – | – | –
101.33 kPa, x2 = 0.91 | 1.752 | – | – | – | – | –
101.33 kPa, x2 = 0.92 | 1.502 | – | – | – | – | –
101.33 kPa, x2 = 0.94 | 1.384 | – | – | – | – | –
